{"source": "patent US20100267680A1", "about": "“USE OF AT LEAST ONE OXIME DERIVATIVE OF CHOLEST-4-EN-3-ONE AS ANTIOXIDANTS” (priority 2007, published 2010)", "key": {"[1]": {"assay": "Competition with DMPO for tBuO radical, EPR quantification of DMPO-tBuO adduct", "conditions": "for % inhibition of the DMPO-tBuO radical: compound 20 mM equimolar to DMPO", "experimental": "The nitrones trap the radical species (R.; […]) and allow their observation by electron paramagnetic resonance (EPR) (Degray J. et al. Electron Spin Resonance, Ed N.M. Atherton, Atheaeum Press Ltd; Cambridge, 1994, 14, 246).\nThe incubation of the DMPO (Interchim-U2469) (20 mM) in deoxygenated toluene (Sigma-Aldrich) in the presence of the tBuO (tert-butoxyl) radical, generated by photolysis, makes it possible to identify and quantify by EPR the signal of the DMPO-tBuO radical. This signal is inhibited in the presence of an equimolar quantity of cholest-4-en-3-one oxime.\nThe EPR signal allows integration in the form of an area of the signal of the DMPO-tBuO adduct and therefore a relative quantification of this radical entity.\nAll the experiments were carried out on an X-band Bruker ESP300 device (9.5 GHz) at ambient temperature. The solutions were studied in a quartz EPR tube."}, "[2]": {"assay": "Oxidation of cumene to cumene hydroperoxide by oxygen with AIBN, HPLC-UV assay", "conditions": "for % of reduction of the oxidation of the cumene / Area of the signal, in relative units, of the cumene hydroperoxide: 2 equivalents of AIBN, 2 hours 45° C.", "experimental": "The oxidation of cumene at atmospheric pressure and at 37° C. by oxygen is known and described in the presence of a radical initiator such as AIBN (azobisisobutyronitrile) (Blanchard H. S., J. Am. Chem. Soc. 1959, 81, 4548). A recent publication used this reaction to classify the antioxidant potential of known products such as vitamin E (which is the universal reference), BHT (butylated hydroxytoluene) and other products.\nIn the following experiment we reproduced the same experimental conditions as those described in the publication of Becker D. A. et al. (J. Am. Chem. Soc. 2002, 124, 4678-4684). A high pressure liquid chromatography method coupled with a UV detector was used to detect cumene hydroperoxide. The column used is an Agilent Zorbax Eclipse XDB RPC8 column (150×4.6 mm) coupled with a UV detector fixed at 254 nm. The gradient used is detailed in the following table: […]\n2 ml of cumene (AcrosOrganic) and 0.5 ml of methanol are mixed, azobisisobutyronitrile (AcrosOrganic) is added (2 equivalents) and the solution taken to 45° C. in order to accelerate the chemical reaction. The cumene hydroperoxide appears over time and is assayed by the HPLC method.\nThe technique used made it possible to compare the appearance of the cumene hydroperoxide in the presence of an antioxidant agent such as the claimed products and vitamin E used as reference product."}, "Beagles": {"tested_on": "Beagles", "assay": "General toxicity study, oral once daily for 39 weeks", "format": "in vivo", "conditions": "suspension in corn oil", "experimental": "A general toxicity study was carried out on Beagles receiving cholest-4-èn-3-one oxime in suspension in corn oil by oral administration once daily for 39 weeks. The detailed toxicological analysis of this study made it possible to describe a dose with a no-observed-effect level (NOEL) at 50 mg/kg."}, "[3]": {"assay": "Pharmacokinetics in the dog, oral and intra-venous, plasma assay by HPLC-MS", "format": "in vivo", "conditions": "500 mg/kg oral route, suspension in corn oil, vs intra-venous", "experimental": "A study of pharmacokinetics with administration by oral route in suspension in corn oil and by intra-venous route in solution in cremophor/ethanol/water (5%, 10%, 85%) made it possible to calculate the bioavailability of the product. The assay of the product in the plasma is carried out by a high pressure liquid chromatography method coupled with mass spectrometry."}, "[4]": {"assay": "Chemical stability of powder under ICH storage conditions, HPLC-UV total impurities", "format": "physicochemical", "conditions": "for total impurities: powder", "experimental": "These analyses were carried out using a high pressure liquid chromatography method coupled with a UV detector. This method makes it possible to quantify the impurities at a level of 0.05%."}}}
{"compound": "CC(C)CCC[C@@H](C)[C@H]1CC[C@H]2[C@@H]3CCC4=CC(=NO)CC[C@]4(C)[C@H]3CC[C@]12C", "note": "[cholest-4-en-3-one oxime]", "values": [{"measurement": "Area of the DMPO-tBuO signal at 200 s in relative units", "setting": "[1]; DMPO 20 mM + compound 20 mM, (t-BuO)2 20 mM, photolysis at 350 nm, 200 s", "result": 3, "unit": "relative units"}, {"measurement": "Area of the DMPO-tBuO signal at 400 s in relative units", "setting": "[1]; DMPO 20 mM + compound 20 mM, (t-BuO)2 20 mM, photolysis at 350 nm, 400 s", "result": 5.5, "unit": "relative units"}, {"measurement": "DMPO-tBuO EPR signal in the presence of an equimolar quantity of compound", "setting": "[1]; DMPO 20 mM in deoxygenated toluene, equimolar compound", "result": "inhibited"}, {"measurement": "% inhibition of the DMPO-tBuO radical", "setting": "[1]; 200 s", "result": 50, "unit": "%"}, {"measurement": "% inhibition of the DMPO-tBuO radical", "setting": "[1]; 400 s", "result": 40, "unit": "%"}, {"measurement": "inhibition of the level of the DMPO-tBuO signal radical", "setting": "[1]; conclusion of Example 1", "result": "~50", "unit": "%"}, {"measurement": "kinetics of inhibition of the DMPO-tBuO signal", "setting": "[1]; rapid kinetics", "result": "less than 10 minutes"}, {"measurement": "% of reduction of the oxidation of the cumene", "setting": "[2]; 100 μM", "result": 38, "unit": "%"}, {"measurement": "Area of the signal, in relative units, of the cumene hydroperoxide", "setting": "[2]; 100 μM", "result": 250, "unit": "relative units"}, {"measurement": "% of reduction of the oxidation of the cumene", "setting": "[2]; 200 μM", "result": 57, "unit": "%"}, {"measurement": "Area of the signal, in relative units, of the cumene hydroperoxide", "setting": "[2]; 200 μM", "result": 175, "unit": "relative units"}, {"measurement": "reduction of the oxidation of the cumene by oxygen", "setting": "[2]; conclusion of Example 2", "result": "approximately 40%"}, {"measurement": "activity compared with vitamin E", "setting": "[2]; same concentrations, same conditions", "result": "activity similar to vitamin E"}, {"measurement": "no-observed-effect level (NOEL)", "setting": "Beagles", "result": 50, "unit": "mg/kg"}, {"measurement": "bioavailability", "setting": "[3]", "result": 6, "unit": "%"}, {"measurement": "change in the quality of the product", "setting": "[4]; after 2 year's storage at 25° C.", "result": "No change in the quality of the product"}, {"measurement": "change in the quality of the product", "setting": "[4]; after 6 months of storage at 40° C.", "result": "No change in the quality of the product"}, {"measurement": "total impurities", "setting": "[4]; 25° C. under 60% relative humidity, T0", "result": 1.8, "unit": "%"}, {"measurement": "total impurities", "setting": "[4]; 25° C. under 60% relative humidity, T24 months", "result": 1.8, "unit": "%"}, {"measurement": "total impurities", "setting": "[4]; 40° C. under 75% relative humidity, T0", "result": 2.1, "unit": "%"}, {"measurement": "total impurities", "setting": "[4]; 40° C. under 75% relative humidity, T6 months", "result": 1.9, "unit": "%"}]}
{"compound": "vitamin E [reference compound]", "values": [{"measurement": "% of reduction of the oxidation of the cumene", "setting": "[2]; 100 μM", "result": 39, "unit": "%"}, {"measurement": "Area of the signal, in relative units, of the cumene hydroperoxide", "setting": "[2]; 100 μM", "result": 245, "unit": "relative units"}]}
